The text below walks through data of patent publication US12227501B2, “3-amino-2-[2-(acylamino)pyridin-4-yl]-1,5,6,7-tetrahydro-4h-pyrrolo[3,2-c]pyridin-4-one as CSNK1 inhibitors” (Bayer Aktiengesellschaft, priority 2019, dated 2025).

Holding throughout (format): biochemical
Assay [1] has as its target T1, human CSNK1A1 (Homo sapiens (Human), UniProt P48729). Briefly: CSNK1A1 Assay 2 (ADP-Glo, 1 μM ATP). Particulars: substrate biotin-Ahx-KRRRAL-pS-VASLPGL, read-out: CSNK1A1 Assay 2 IC50 [mol/l] (median). The protocol:
CSNK1A1-inhibitory activity of compounds of the present invention in presence of 1 μM adenosine-tri-phosphate (ATP) was quantified employing the CSNK1A1 assay as described in the following paragraphs. In essence, the enzyme activity is measured by quantification of the adenosine-di-phosphate (ADP), which is generated as a co-product of the enzyme reaction, via the “ADP-Glo™ Kinase Assay” kit from the company Promega. This detection system works as follows: In a first step the ATP not consumed in the kinase reaction is quantitatively converted to cAMP employing an adenylate cyclase (“ADP-Glo-reagent”), then the adenylate cyclase is stopped and the ADP generated in the kinase reaction converted to ATP which generates in a luciferase-based reaction a glow-luminescence signal (“Kinase Detection Reagent”). Recombinant fusion protein of N-terminal Glutathion-S-Transferase (GST) and full-length human CSNK1A1, expressed by baculovirus infected insect cells and purified via Glutathion affinity chromatography, was purchased from Life Technologies (product no. PV4174) and used as enzyme. As substrate for the kinase reaction the biotinylated peptide biotin-Ahx-KRRRAL-pS-VASLPGL (C-terminus in amide form) was used which can be purchased e.g. from the company Biosyntan (Berlin-Buch, Germany).
For the assay 50 nl of a 100 fold concentrated solution of the test compound in DMSO was pipetted into a white 1536-well microtiter plate (Greiner Bio-One, Frickenhausen, Germany), 2 μL of a solution of CSNK1A1 in aqueous assay buffer [50 mM HEPES pH 7.5, 10% (v/v) glycerol, 10 mM MgCl2, 50 mM NaCl, 1 mM dithiothreitol, 0.01% (w/v) bovine serum albumin, 0.01% (v/v) Triton X-100] were added and the mixture was incubated for 15 min at 22° C. to allow pre-binding of the test compounds to the enzyme before the start of the kinase reaction. […] The concentration of CSNK1A1 was adjusted depending of the activity of the enzyme lot and was chosen appropriate to have the assay in the linear range, a typical concentrations are about 0.0375 ng/μL. The reaction was stopped by the addition of 2.5 μL of “ADP-Glo-reagent” (1:1.5 fold diluted with water) and the resulting mixture was incubated at 22° C. for 1 h to convert the ATP not consumed in the kinase reaction completely […]. Subsequently 2.5 μL of the “kinase detection reagent” (1.2 fold more concentrated than recommended by the producer) were added, the resulting mixture was incubated at 22° C. for 1 h and then the luminescence measured with a suitable measurement instrument (e.g. Viewlux™ from Perkin-Elmer). The amount of emitted light was taken as a measure for the amount of ADP generated and thereby for the activity of the CSNK1A1.

Assay [2] has as its target T1, human CSNK1A1. Description: CSNK1A1 High ATP Assay (ADP-Glo, 1 mM ATP). The settings on record: read-out: CSNK1A1 high ATP assay IC50 [mol/l] (median). The procedure: CSNK1A1-inhibitory activity of compounds of the present invention in presence of 1 mM adenosine-tri-phosphate (ATP) was quantified employing the CSNK1A1-high-ATP-assay as described in the following paragraphs. In essence, the enzyme activity is measured by quantification of the adenosine-di-phosphate (ADP), which is generated as a co-product of the enzyme reaction, via the “ADP-Glo™ Kinase Assay” kit from the company Promega. This detection system works as follows: In a first step the ATP not consumed in the kinase reaction is quantitatively converted to cAMP employing an adenylate cyclase (“ADP-Glo-reagent”), then the adenylate cyclase is stopped and the ADP generated in the kinase reaction converted to ATP which generates in a luciferase-based reaction a glow-luminescence signal (“Kinase Detection Reagent”).
Recombinant fusion protein of N-terminal Glutathion-S-Transferase (GST) and full-length human CSNK1A1, expressed by baculovirus infected insect cells and purified via Glutathion affinity chromatography, was purchased from Life Technologies (product no. PV4174) and used as enzyme. As substrate for the kinase reaction the biotinylated peptide biotin-Ahx-KRRRAL-pS-VASLPGL (C-terminus in amide form) was used which can be purchased e.g. from the company Biosyntan (Berlin-Buch, Germany).
For the assay 50 nl of a 100 fold concentrated solution of the test compound in DMSO was pipetted into a white low volume 384-well microtiter plate (Greiner Bio-One, Frickenhausen, Germany), 2 μL of a solution of CSNK1A1 in aqueous assay buffer [50 mM HEPES pH 7.5, 10% (v/v) glycerol, 10 mM MgCl2, 50 mM NaCl, 1 mM dithiothreitol, 0.01% (w/v) bovine serum albumin, 0.01% (v/v) Triton X-100] were added and the mixture was incubated for 15 min at 22° C. to allow pre-binding of the test compounds to the enzyme before the start of the kinase reaction. […] The concentration of CSNK1A1 was adjusted depending of the activity of the enzyme lot and was chosen appropriate to have the assay in the linear range, a typical concentration is about 0.4 ng/μL. The reaction was stopped by the addition of 2.5 μL of “ADP-Glo-reagent” (1:1.5 fold diluted with water) and the resulting mixture was incubated at 22° C. for 1 h to convert the ATP not consumed in the kinase reaction completely […]. Subsequently 2.5 μL of the “kinase detection reagent” (1.2 fold more concentrated than recommended by the producer) were added, the resulting mixture was incubated at 22° C. for 1 h and then the luminescence measured with a suitable measurement instrument (e.g. Viewlux™ from Perkin-Elmer). The amount of emitted light was taken as a measure for the amount of ADP generated and thereby for the activity of the CSNK1A1.

Assay [3] has as its target human CSNK1D (Homo sapiens (Human), UniProt P48730). Description: CSNK1D Assay (ADP-Glo, 1 μM ATP). Particulars: read-out: CSNK1D IC50 [mol/l] (median). The protocol: CSNK1 D-inhibitory activity of compounds of the present invention in presence of 1 μM adenosine-tri-phosphate (ATP) was quantified employing the CSNK1D assay as described in the following paragraphs. In essence, the enzyme activity is measured by quantification of the adenosine-di-phosphate (ADP), which is generated as a co-product of the enzyme reaction, via the “ADP-Glo™ Kinase Assay” kit from the company Promega. This detection system works as follows: In a first step the ATP not consumed in the kinase reaction is quantitatively converted to cAMP employing an adenylate cyclase (“ADP-Glo-reagent”), then the adenylate cyclase is stopped and the ADP generated in the kinase reaction converted to ATP which generates in a luciferase-based reaction a glow-luminescence signal (“Kinase Detection Reagent”). Recombinant fusion protein of N-terminal Glutathion-S-Transferase (GST) and full-length human CSNK1D, expressed by baculovirus infected insect cells and purified via Glutathion affinity chromatography, was purchased from Life Technologies (product no. PV3665) and used as enzyme. As substrate for the kinase reaction the biotinylated peptide Btn-Ahx-[…] (C-terminus in amide form) was used which can be purchased e.g. from the company Biosyntan (Berlin-Buch, Germany).
For the assay 50 nl of a 100 fold concentrated solution of the test compound in DMSO was pipetted into a white 1536-well microtiter plate (Greiner Bio-One, Frickenhausen, Germany), 2 μL of a solution of CSNK1D in aqueous assay buffer [50 mM HEPES pH 7.5, 10% (v/v) glycerol, 10 mM MgCl2, 50 mM NaCl, 1 mM dithiothreitol, 0.01% (w/v) bovine serum albumin, 0.01% (v/v) Triton X-100] were added and the mixture was incubated for 15 min at 22° C. to allow pre-binding of the test compounds to the enzyme before the start of the kinase reaction. […] The concentration of CSNK1 D was adjusted depending of the activity of the enzyme lot and was chosen appropriate to have the assay in the linear range, a typical concentration is about 0.5 ng/μL. The reaction was stopped by the addition of 2.5 μL of “ADP-Glo-reagent” (1:1.5 fold diluted with water) and the resulting mixture was incubated at 22° C. for 1 h to convert the ATP not consumed in the kinase reaction completely […]. Subsequently 2.5 μL of the “kinase detection reagent” (1.2 fold more concentrated than recommended by the producer) were added, the resulting mixture was incubated at 22° C. for 1 h and then the luminescence measured with a suitable measurement instrument (e.g. Viewlux™ from Perkin-Elmer). The amount of emitted light was taken as a measure for the amount of ADP generated and thereby for the activity of the CSNK1D.

In assay [4] the target is wild-type Epidermal Growth Factor Receptor (EGFR) (Homo sapiens (Human), UniProt P00533). Description: WT-EGFR Kinase Assay (TR-FRET, 2 mM ATP). Particulars: EGFR Wildtyp- 2 mM ATP IC50 [mol/l] (median).
Chain of wild-type Epidermal Growth Factor Receptor (EGFR) (P00533 669-1210): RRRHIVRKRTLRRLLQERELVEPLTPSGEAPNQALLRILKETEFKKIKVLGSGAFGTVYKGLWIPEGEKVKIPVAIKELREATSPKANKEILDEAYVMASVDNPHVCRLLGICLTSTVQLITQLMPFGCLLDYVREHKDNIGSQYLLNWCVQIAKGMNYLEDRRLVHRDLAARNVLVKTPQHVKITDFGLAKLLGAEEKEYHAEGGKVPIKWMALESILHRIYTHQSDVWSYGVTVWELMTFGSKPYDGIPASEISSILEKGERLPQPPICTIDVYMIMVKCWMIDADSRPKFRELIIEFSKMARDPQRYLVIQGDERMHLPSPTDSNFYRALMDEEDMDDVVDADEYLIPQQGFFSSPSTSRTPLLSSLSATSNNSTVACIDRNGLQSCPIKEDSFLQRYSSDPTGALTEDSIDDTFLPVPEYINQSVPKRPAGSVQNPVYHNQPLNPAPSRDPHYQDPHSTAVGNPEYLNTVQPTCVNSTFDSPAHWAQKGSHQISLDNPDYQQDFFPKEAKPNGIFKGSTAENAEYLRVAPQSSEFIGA

T1 sequence (P48729 whole entry): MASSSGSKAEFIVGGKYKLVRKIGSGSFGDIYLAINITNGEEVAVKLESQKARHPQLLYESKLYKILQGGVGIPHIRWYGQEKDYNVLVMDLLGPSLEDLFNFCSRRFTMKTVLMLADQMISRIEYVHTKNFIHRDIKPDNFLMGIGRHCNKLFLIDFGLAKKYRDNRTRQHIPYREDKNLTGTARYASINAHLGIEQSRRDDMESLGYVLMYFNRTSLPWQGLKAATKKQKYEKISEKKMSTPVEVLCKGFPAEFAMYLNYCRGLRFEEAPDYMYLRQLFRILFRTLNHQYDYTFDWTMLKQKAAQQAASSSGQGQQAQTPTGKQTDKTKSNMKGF
Chain of human CSNK1D (P48730 whole entry): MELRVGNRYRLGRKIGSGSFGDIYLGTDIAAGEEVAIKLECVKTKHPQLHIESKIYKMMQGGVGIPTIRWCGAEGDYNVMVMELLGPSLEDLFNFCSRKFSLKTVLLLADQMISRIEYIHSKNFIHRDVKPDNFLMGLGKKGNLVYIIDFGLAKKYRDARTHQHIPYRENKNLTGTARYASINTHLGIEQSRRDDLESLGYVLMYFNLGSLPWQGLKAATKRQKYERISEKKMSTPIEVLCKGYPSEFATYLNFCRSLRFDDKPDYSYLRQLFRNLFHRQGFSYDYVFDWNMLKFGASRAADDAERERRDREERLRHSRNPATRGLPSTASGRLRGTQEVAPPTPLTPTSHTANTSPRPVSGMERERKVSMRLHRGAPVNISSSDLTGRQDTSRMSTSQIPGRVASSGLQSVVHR

Consider `O=C(Cc1ccc(F)cc1)Nc1cc(-c2[nH]c3c(c2Nc2ccccc2)C(=O)NC(C(F)(F)F)C3)ccn1` (racemic) [Example 43, N-{4-[3-anilino-4-oxo-6-(trifluoromethyl)-4,5,6,7-tetrahydro-1H-pyrrolo[3,2-c]pyridin-2-yl]pyridin-2-yl}-2-(4-fluorophenyl)acetamide], for which the IC50 in assay [1] was 0.00352 µM; in assay [2], 0.0675 µM; in assay [3], 0.00712 µM; in assay [4], 2 µM.
The corresponding values for `CN1C(=O)c2c([nH]c(-c3ccnc(NC(=O)C(CC(F)F)c4ccc(F)cc4)c3)c2Nc2ccccc2F)CC1(C)C` (racemic) [Example 45, 4,4-difluoro-N-{4-[3-(2-fluoroanilino)-5,6,6-trimethyl-4-oxo-4,5,6,7-tetrahydro-1H-pyrrolo[3,2-c]pyridin-2-yl]pyridin-2-yl}-2-(4-fluorophenyl)butanamide] are 0.0163 µM, 0.273 µM, 0.0132 µM and over 20 µM.
The corresponding values for `CC1(C)Cc2[nH]c(-c3ccnc(NC(=O)C(CC(F)F)c4ccc(F)cc4)c3)c(Nc3ccccc3)c2C(=O)N1` (racemic) [Example 48, N-[4-(3-anilino-6,6-dimethyl-4-oxo-4,5,6,7-tetrahydro-1H-pyrrolo[3,2-c]pyridin-2-yl)pyridin-2-yl]-4,4-difluoro-2-(4-fluorophenyl)butanamide] are 0.00769 µM, 0.037 µM, 0.0134 µM and 14.5 µM.
As to `O=C1NC2(CCC2)Cc2[nH]c(-c3ccnc(NC(=O)C(CC(F)F)c4ccc(F)cc4)c3)c(Nc3ccccc3)c21` (racemic) [Example 54, N-[4-(3′-anilino-4′-oxo-1′,4′,5′,7′-tetrahydrospiro[cyclobutane-1,6′-pyrrolo[3,2-c]pyridin]-2′-yl)pyridin-2-yl]-4,4-difluoro-2-(4-fluorophenyl)butanamide], the IC50 is 0.00462 µM in assay [1], 0.0146 µM in assay [2], 0.0055 µM in assay [3] and over 20 µM in assay [4].
On to `CN(C)CCCC(C(=O)Nc1cc(-c2[nH]c3c(c2Nc2ccccc2)C(=O)N(C)CC3)ccn1)c1ccccc1` (racemic) [Example 58, N-[4-(3-anilino-5-methyl-4-oxo-4,5,6,7-tetrahydro-1H-pyrrolo[3,2-c]pyridin-2-yl)pyridin-2-yl]-5-(dimethylamino)-2-phenylpentanamide], for which the IC50 in assay [1] was 0.0124 µM; in assay [2], 1.2 µM; in assay [3], 0.0406 µM; in assay [4] it was over 20 µM.
On the same counts, the results for `CN1CCc2[nH]c(-c3ccnc(NC(=O)C(CC(F)F)c4ccc(F)cc4)c3)c(Nc3ccccc3)c2C1=O` (racemic) [Example 61, N-[4-(3-anilino-5-methyl-4-oxo-4,5,6,7-tetrahydro-1H-pyrrolo[3,2-c]pyridin-2-yl)pyridin-2-yl]-4,4-difluoro-2-(4-fluorophenyl)butanamide] are 0.00511 µM, 0.0219 µM, 0.00768 µM and 8.02 µM.
As for `CC(C(=O)Nc1cc(-c2[nH]c3c(c2Nc2ccccc2)C(=O)N(C)CC3)ccn1)c1ccncc1` (racemic) [Example 72, N-[4-(3-anilino-5-methyl-4-oxo-4,5,6,7-tetrahydro-1H-pyrrolo[3,2-c]pyridin-2-yl)pyridin-2-yl]-2-(pyridin-4-yl)propanamide], the IC50 was found to be 0.00397 µM in assay [1], 0.0664 µM in assay [2], 0.00609 µM in assay [3] and 7.59 µM in assay [4].
On the same counts, the results for `CCC(C(=O)Nc1cc(-c2[nH]c3c(c2Nc2ccccc2)C(=O)N(C)CC3)ccn1)c1ccc(F)cc1` (racemic) [Example 75, N-[4-(3-anilino-5-methyl-4-oxo-4,5,6,7-tetrahydro-1H-pyrrolo[3,2-c]pyridin-2-yl)pyridin-2-yl]-2-(4-fluorophenyl)butanamide] are 0.00549 µM, 0.164 µM, 0.00828 µM and over 20 µM.
With `CN1CCc2[nH]c(-c3ccnc(NC(=O)Cc4ccc(N(C)C)cc4)c3)c(Nc3ccccc3)c2C1=O` [Example 84, N-[4-(3-anilino-5-methyl-4-oxo-4,5,6,7-tetrahydro-1H-pyrrolo[3,2-c]pyridin-2-yl)pyridin-2-yl]-2-[4-(dimethylamino)phenyl]acetamide], the IC50 in assay [1] was 0.00264 µM; in assay [2], 0.217 µM; in assay [3] it was 0.0085 µM.
